Patent US20180200257A1, “METHODS FOR THE TREATMENT OF INFLAMMATORY DISORDERS” (Galapagos NV, priority 2015, published 2018)

Test system: subjects with moderately to severely active RA who have an inadequate response to methotrexate (MTX)
Assay: Study 1 (add-on to MTX) - ACR responses (ACR20/50/70)
Format: in vivo, human
From the text: The terms “ACR20”, “ACR50” and “ACR70” as used herein are scores which indicate how much a patient's rheumatoid arthritis has improved according to criteria set out by the American College of Rheumatology (ACR). The ACR score represents a percentage. An ACR20 score means that a person's RA has improved by 20%, an ACR50 score means it has improved by 50%, and an ACR70 score means it has improved by 70%. Specifically, to qualify for an ACR20 score, a person with RA must have at least 20% fewer tender joints and at least 20% fewer swollen joints. In addition the patient must show a 20% improvement in at least three of the following five areas: the person's overall (global) assessment of his or her own RA, the physician's global assessment of the person's RA, the person's assessment of his or her own pain, the person's assessment of his or her own physical functioning, and the results of an erythrocyte sedimentation rate or C-reactive protein (CRP) blood test (both of which test for inflammation). ACR50 and ACR70 scores use the same criteria but require 50% and 70% improvement, respectively, (Felson et al., 1993). In the data presented herein the CRP blood test is used.
Double-blind, placebo-controlled add on study in subjects with moderately to severely active RA who have an inadequate response to methotrexate (MTX) (oral or parenteral).
595 subjects randomized to one of 6 dose regimens of Compound 1 (dosed as [Compound 1:HCl:3H2O]) (3 dose levels administered either once or twice daily) or placebo on top of each subject's stable dose of MTX.
Compound 1 (dosed as [Compound 1:HCl:3H2O]) is dosed for twelve weeks once daily (q.d.) (50 mg, 100 mg or 200 mg) or twice daily (b.i.d.) (25 mg, 50 mg or 100 mg); or placebo.
At Week 12, the subjects on placebo who have not achieved 20% improvement in swollen joint count (SJC66) and tender joint count (TJC68) are re-randomized automatically to receive Compound 1 (dosed as a [Compound 1:HCl:3H2O]) either at 100 mg q.d. or 50 mg b.i.d. doses in a blinded fashion; subjects on 50 mg q.d. who have not achieved 20% improvement in SJC66 and TJC68 will be assigned to 100 mg q.d. and subjects on 25 mg b.i.d. that have not achieved a 20% improvement in SJC66 and TJC68 will be assigned to 50 mg b.i.d. Subjects who switch treatment at week 12 are handled as if they discontinued at week 12 for the purpose of statistical analysis, whereas subjects in the other groups will maintain their randomized treatment until Week 24.
The American College of Rheumatology (ACR) composite score, which evaluates clinical improvement relative to an initial assessment, is a commonly accepted efficacy end point for clinical trials in patients with rheumatoid arthritis. The ACR score correspond to a percentage improvement in pre-set parameters, and therefore measures the evolution of the disease in a patient. For example, ACR20 denotes at least 20% improvement in tender and swollen joint counts and in three of the following end points: global assessment by the patient, global assessment by the doctor, C reactive protein (CRP), patient's pain Visual Analogue Scale and Health Assessment Questionnaire Score. The number of swollen joints, ESR and CRP correlate with radiographic progression of joint damage, whereas tender joint counts, as well as global assessments by doctors and patients, and patients' reports of pain, are sensitive to change in clinical outcomes. Physical function, as assessed by the Health Assessment Questionnaire Score, is a potent predictor of the risk of disability in rheumatoid arthritis (Felson and American College of Rheumatology Committee to Reevaluate Improvement Criteria, 2007; Felson et al., 1993).
In particular, the list of parameters used to assess ACR score can be found in the Table XCVI below and the results of the ACR responses at week 12 via either NRI or LOCF are shown in the tables below. The Hommel-corrected p-value for the pairwise comparisons of each group with placebo is shown. […]

[1] = 2 × 50 mg b.i.d., week 12, 12 weeks results
[2] = 2 × 50 mg b.i.d., week 12, 24 weeks results
[3] = 2 × 50 mg b.i.d., week 16, 24 weeks results
[4] = 2 × 50 mg b.i.d., week 20, 24 weeks results
[5] = 2 × 50 mg b.i.d., week 24, 24 weeks results
[6] = 2 × 50 mg b.i.d., at week 1, 12 weeks results
[7] = 2 × 50 mg b.i.d., at week 1, 24 weeks results
[8] = 2 × 100 mg b.i.d., week 2, 12 weeks results
[9] = 2 × 100 mg b.i.d., week 2, 24 weeks results
[10] = 2 × 100 mg b.i.d., week 4, 12 weeks results
[11] = 2 × 100 mg b.i.d., week 4, 24 weeks results
[12] = 2 × 100 mg b.i.d., week 8, 12 weeks results
[13] = 2 × 100 mg b.i.d., week 8, 24 weeks results
[14] = 2 × 100 mg b.i.d., week 12, 12 weeks results
[15] = 2 × 100 mg b.i.d., week 12, 24 weeks results
[16] = 2 × 100 mg b.i.d., week 16, 24 weeks results
[17] = 2 × 100 mg b.i.d., week 20, 24 weeks results
[18] = 2 × 100 mg b.i.d., week 24, 24 weeks results
[19] = 2 × 100 mg b.i.d., at week 1, 12 weeks results
[20] = 2 × 100 mg b.i.d., at week 1, 24 weeks results

## O=C(Nc1nc2cccc(-c3ccc(CN4CCS(=O)(=O)CC4)cc3)n2n1)C1CC1 [Compound 1, cyclopropanecarboxylic acid {5-[4-(1,1-dioxo-thiomorpholin-4-ylmethyl)-phenyl]-[1,2,4]triazolo[1,5-a]pyridin-2-yl}-amide]
2 × 50 mg b.i.d., week 8, 24 weeks results
  ACR70 (NRI): 14.1%
[1]
  ACR20 (LOCF): 58.8%
  ACR20 (NRI): 58.8%
  ACR50 (LOCF): 34.1%
  ACR50 (NRI): 34.1%
  ACR70 (LOCF): 18.8%
  ACR70 (NRI): 18.8%
[2]
  ACR20 (LOCF): 60.0%
  ACR20 (NRI): 58.8%
  ACR50 (LOCF): 34.1%
  ACR50 (NRI): 34.1%
  ACR70 (LOCF): 18.8%
  ACR70 (NRI): 18.8%
[3]
  ACR20 (LOCF): 67.1%
  ACR20 (NRI): 64.7%
  ACR50 (LOCF): 32.9%
  ACR70 (LOCF): 21.2%
[4]
  ACR20 (LOCF): 68.2%
  ACR20 (NRI): 65.9%
  ACR50 (LOCF): 41.2%
  ACR70 (LOCF): 22.4%
[5]
  ACR20 (LOCF): 67.1%
  ACR20 (NRI): 60.0%
  ACR50 (LOCF): 38.8%
  ACR70 (LOCF): 24.7%
[6]
  ACR20 (LOCF): 22.4%
  ACR20 (NRI): 22.4%
  ACR50 (LOCF): 7.1%
  ACR50 (NRI): 7.1%
  ACR70 (LOCF): 2.4%
  ACR70 (NRI): 2.4%
[7]
  ACR20 (LOCF): 22.4%
  ACR20 (NRI): 22.4%
  ACR50 (LOCF): 7.1%
  ACR50 (NRI): 7.1%
  ACR70 (LOCF): 2.4%
  ACR70 (NRI): 2.4%
[8]
  ACR20 (LOCF): 53.6%
  ACR20 (NRI): 54.8%
  ACR50 (LOCF): 22.6%
  ACR50 (NRI): 21.4%
  ACR70 (LOCF): 4.8%
  ACR70 (NRI): 3.6%
[9]
  ACR20 (LOCF): 56.0%
  ACR20 (NRI): 54.8%
  ACR50 (LOCF): 22.6%
  ACR50 (NRI): 21.4%
  ACR70 (LOCF): 4.8%
  ACR70 (NRI): 3.6%
[10]
  ACR20 (LOCF): 67.9%
  ACR20 (NRI): 69.0%
  ACR50 (LOCF): 34.5%
  ACR50 (NRI): 35.7%
  ACR70 (LOCF): 9.5%
  ACR70 (NRI): 10.7%
[11]
  ACR20 (LOCF): 67.9%
  ACR20 (NRI): 67.9%
  ACR50 (LOCF): 34.5%
  ACR50 (NRI): 34.5%
  ACR70 (LOCF): 10.7%
  ACR70 (NRI): 10.7%
[12]
  ACR20 (LOCF): 75.0%
  ACR20 (NRI): 75.0%
  ACR50 (LOCF): 45.2%
  ACR50 (NRI): 45.2%
  ACR70 (LOCF): 26.2%
  ACR70 (NRI): 27.4%
[13]
  ACR20 (LOCF): 75.0%
  ACR20 (NRI): 75.0%
  ACR50 (LOCF): 45.2%
  ACR50 (NRI): 45.2%
  ACR70 (LOCF): 27.4%
  ACR70 (NRI): 27.4%
[14]
  ACR20 (LOCF): 79.8%
  ACR20 (NRI): 79.8%
  ACR50 (LOCF): 56.0%
  ACR50 (NRI): 54.8%
  ACR70 (LOCF): 29.8%
  ACR70 (NRI): 31.0%
[15]
  ACR20 (LOCF): 81.0%
  ACR20 (NRI): 79.8)
  ACR50 (LOCF): 57.1%
  ACR50 (NRI): 54.8%
  ACR70 (LOCF): 31.0%
  ACR70 (NRI): 31.0%
[16]
  ACR20 (LOCF): 84.5%
  ACR20 (NRI): 82.1%
  ACR50 (LOCF): 64.3%
  ACR70 (LOCF): 36.9%
[17]
  ACR20 (LOCF): 88.1%
  ACR20 (NRI): 84.5%
  ACR50 (LOCF): 61.9%
  ACR70 (LOCF): 36.9%
[18]
  ACR20 (LOCF): 86.9%
  ACR20 (NRI): 79.8%
  ACR50 (LOCF): 61.9%
  ACR70 (LOCF): 42.9%
[19]
  ACR20 (LOCF): 33.3%
  ACR20 (NRI): 34.5%
  ACR50 (LOCF): 7.1%
  ACR50 (NRI): 7.1%
  ACR70 (LOCF): 4.8%
  ACR70 (NRI): 4.8%
[20]
  ACR20 (LOCF): 34.5%
  ACR20 (NRI): 34.5%
  ACR50 (LOCF): 7.1%
  ACR50 (NRI): 7.1%
  ACR70 (LOCF): 4.8%
  ACR70 (NRI): 4.8%
